ChEMBL document CHEMBL1138371, “Discovery of low nanomolar non-hydroxamate inhibitors of tumor necrosis factor-alpha converting enzyme (TACE)” (Bioorg Med Chem Lett, 2007)

These compounds were tested on Blood (assay: Inhibition of LPS-stimulated TNFalpha production in human whole blood).
Type: functional, tissue-based

SMILES	IC50 [µM]
Cc1cc(COc2ccc(C(=O)NCC3(C4CCN(S(C)(=O)=O)CC4)C(=O)NC(=O)NC3=O)cc2)c2ccccc2n1	> 50
Cc1cc(COc2ccc(C(=O)NCC3(N4CCN(C(C)C)CC4)C(=O)NC(=O)NC3=O)cc2)c2ccccc2n1	> 50
Cc1cc(COc2ccc(C(=O)NC3CN(C(=O)c4cccnc4)CC34C(=O)NC(=O)NC4=O)cc2)c2ccccc2n1 (configuration not stated)	18.4
CC(=O)N1CC(NC(=O)c2ccc(OCc3cc(C)nc4ccccc34)cc2)C2(C1)C(=O)NC(=O)NC2=O (configuration not stated)	14
Cc1cc(COc2ccc(C(=O)NC3CN(C(=O)C(C)(C)C)CC34C(=O)NC(=O)NC4=O)cc2)c2ccccc2n1 (configuration not stated)	> 50
CCC1(CNC(=O)c2ccc(OCc3cc(C)nc4ccccc34)cc2)C(=O)NC(=O)NC1=O	> 50
C#CCN1CCN(C2(CNC(=O)c3ccc(OCc4cc(C)nc5ccccc45)cc3)C(=O)NC(=O)NC2=O)CC1	> 50
Cc1cc(COc2ccc(C(=O)NCC3(C4CCN(C)CC4)C(=O)NC(=O)NC3=O)cc2)c2ccccc2n1	> 50
Cc1cc(COc2ccc(C(=O)NCC3(N4CCN(Cc5ccccc5)CC4)C(=O)NC(=O)NC3=O)cc2)c2ccccc2n1	> 50
Cc1cc(COc2ccc(C(=O)NCC3(C(C)C)C(=O)NC(=O)NC3=O)cc2)c2ccccc2n1	> 50

These compounds were tested against Collagenase 3 (Homo sapiens, UniProt P45452) (assay: Inhibition of MMP13).

SMILES	Ki [µM]
Cc1cc(COc2ccc(C(=O)NC3CN(C(=O)c4cccnc4)CC34C(=O)NC(=O)NC4=O)cc2)c2ccccc2n1 (configuration not stated)	1.31
CC(=O)N1CC(NC(=O)c2ccc(OCc3cc(C)nc4ccccc34)cc2)C2(C1)C(=O)NC(=O)NC2=O (configuration not stated)	3.95

The compounds below were run against T1, Matrilysin (Homo sapiens, UniProt P09237) (assay: Inhibition of MMP7).
T1 sequence (P09237 whole entry): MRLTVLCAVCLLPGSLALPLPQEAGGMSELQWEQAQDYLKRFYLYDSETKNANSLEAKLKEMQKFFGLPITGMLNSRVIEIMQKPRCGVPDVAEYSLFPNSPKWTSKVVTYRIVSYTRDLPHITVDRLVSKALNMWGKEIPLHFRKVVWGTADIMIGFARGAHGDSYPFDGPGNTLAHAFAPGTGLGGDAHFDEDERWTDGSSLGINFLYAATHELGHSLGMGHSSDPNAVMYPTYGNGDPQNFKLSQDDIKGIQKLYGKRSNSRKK

SMILES	Ki [µM]
Cc1cc(COc2ccc(C(=O)NCC3(C4CCN(S(C)(=O)=O)CC4)C(=O)NC(=O)NC3=O)cc2)c2ccccc2n1	> 6.37
Cc1cc(COc2ccc(C(=O)NCC3(N4CCN(C(C)C)CC4)C(=O)NC(=O)NC3=O)cc2)c2ccccc2n1	> 6.37
Cc1cc(COc2ccc(C(=O)NC3CN(C(=O)c4cccnc4)CC34C(=O)NC(=O)NC4=O)cc2)c2ccccc2n1 (configuration not stated)	> 6.37
CC(=O)N1CC(NC(=O)c2ccc(OCc3cc(C)nc4ccccc34)cc2)C2(C1)C(=O)NC(=O)NC2=O (configuration not stated)	> 6.37
Cc1cc(COc2ccc(C(=O)NC3CN(C(=O)C(C)(C)C)CC34C(=O)NC(=O)NC4=O)cc2)c2ccccc2n1 (configuration not stated)	> 6.37
CCC1(CNC(=O)c2ccc(OCc3cc(C)nc4ccccc34)cc2)C(=O)NC(=O)NC1=O	> 6.37
C#CCN1CCN(C2(CNC(=O)c3ccc(OCc4cc(C)nc5ccccc45)cc3)C(=O)NC(=O)NC2=O)CC1	> 6.37
Cc1cc(COc2ccc(C(=O)NCC3(C4CCN(C)CC4)C(=O)NC(=O)NC3=O)cc2)c2ccccc2n1	> 6.37
Cc1cc(COc2ccc(C(=O)NCC3(N4CCN(Cc5ccccc5)CC4)C(=O)NC(=O)NC3=O)cc2)c2ccccc2n1	> 6.37
Cc1cc(COc2ccc(C(=O)NCC3(C(C)C)C(=O)NC(=O)NC3=O)cc2)c2ccccc2n1	> 6.37

These compounds were tested against Macrophage metalloelastase (Homo sapiens, UniProt P39900) (assay: Inhibition of MMP12).
Macrophage metalloelastase, sequence (P39900 whole entry): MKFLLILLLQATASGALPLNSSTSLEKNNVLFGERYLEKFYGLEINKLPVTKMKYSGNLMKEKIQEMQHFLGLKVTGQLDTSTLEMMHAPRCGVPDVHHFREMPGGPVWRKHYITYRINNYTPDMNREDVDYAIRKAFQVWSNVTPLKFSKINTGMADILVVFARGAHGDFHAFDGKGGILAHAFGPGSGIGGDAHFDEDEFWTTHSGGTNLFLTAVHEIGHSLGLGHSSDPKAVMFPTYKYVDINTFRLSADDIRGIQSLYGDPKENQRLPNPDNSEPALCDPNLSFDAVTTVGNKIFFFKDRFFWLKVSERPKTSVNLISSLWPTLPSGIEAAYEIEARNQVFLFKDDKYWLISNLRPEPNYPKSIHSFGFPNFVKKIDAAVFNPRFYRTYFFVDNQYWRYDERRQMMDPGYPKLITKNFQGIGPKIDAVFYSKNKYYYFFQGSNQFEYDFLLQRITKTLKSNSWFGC

SMILES	Ki [µM]
Cc1cc(COc2ccc(C(=O)NCC3(C4CCN(S(C)(=O)=O)CC4)C(=O)NC(=O)NC3=O)cc2)c2ccccc2n1	> 6.02
Cc1cc(COc2ccc(C(=O)NCC3(N4CCN(C(C)C)CC4)C(=O)NC(=O)NC3=O)cc2)c2ccccc2n1	> 6.02
Cc1cc(COc2ccc(C(=O)NC3CN(C(=O)c4cccnc4)CC34C(=O)NC(=O)NC4=O)cc2)c2ccccc2n1 (configuration not stated)	0.13
CC(=O)N1CC(NC(=O)c2ccc(OCc3cc(C)nc4ccccc34)cc2)C2(C1)C(=O)NC(=O)NC2=O (configuration not stated)	0.58
Cc1cc(COc2ccc(C(=O)NC3CN(C(=O)C(C)(C)C)CC34C(=O)NC(=O)NC4=O)cc2)c2ccccc2n1 (configuration not stated)	> 6.02
CCC1(CNC(=O)c2ccc(OCc3cc(C)nc4ccccc34)cc2)C(=O)NC(=O)NC1=O	0.21
C#CCN1CCN(C2(CNC(=O)c3ccc(OCc4cc(C)nc5ccccc45)cc3)C(=O)NC(=O)NC2=O)CC1	> 6.02
Cc1cc(COc2ccc(C(=O)NCC3(C4CCN(C)CC4)C(=O)NC(=O)NC3=O)cc2)c2ccccc2n1	> 6.02
Cc1cc(COc2ccc(C(=O)NCC3(N4CCN(Cc5ccccc5)CC4)C(=O)NC(=O)NC3=O)cc2)c2ccccc2n1	4.1
Cc1cc(COc2ccc(C(=O)NCC3(C(C)C)C(=O)NC(=O)NC3=O)cc2)c2ccccc2n1	> 6.02

Organism: Homo sapiens
Experiment: Inhibition of aggrecanase at 1 uM

SMILES	inhibition [%]
Cc1cc(COc2ccc(C(=O)NCC3(C4CCN(S(C)(=O)=O)CC4)C(=O)NC(=O)NC3=O)cc2)c2ccccc2n1	36
Cc1cc(COc2ccc(C(=O)NCC3(N4CCN(C(C)C)CC4)C(=O)NC(=O)NC3=O)cc2)c2ccccc2n1	20
Cc1cc(COc2ccc(C(=O)NC3CN(C(=O)c4cccnc4)CC34C(=O)NC(=O)NC4=O)cc2)c2ccccc2n1 (configuration not stated)	17
CC(=O)N1CC(NC(=O)c2ccc(OCc3cc(C)nc4ccccc34)cc2)C2(C1)C(=O)NC(=O)NC2=O (configuration not stated)	44
Cc1cc(COc2ccc(C(=O)NC3CN(C(=O)C(C)(C)C)CC34C(=O)NC(=O)NC4=O)cc2)c2ccccc2n1 (configuration not stated)	53
CCC1(CNC(=O)c2ccc(OCc3cc(C)nc4ccccc34)cc2)C(=O)NC(=O)NC1=O	18
C#CCN1CCN(C2(CNC(=O)c3ccc(OCc4cc(C)nc5ccccc45)cc3)C(=O)NC(=O)NC2=O)CC1	26
Cc1cc(COc2ccc(C(=O)NCC3(C4CCN(C)CC4)C(=O)NC(=O)NC3=O)cc2)c2ccccc2n1	15
Cc1cc(COc2ccc(C(=O)NCC3(N4CCN(Cc5ccccc5)CC4)C(=O)NC(=O)NC3=O)cc2)c2ccccc2n1	22
Cc1cc(COc2ccc(C(=O)NCC3(C(C)C)C(=O)NC(=O)NC3=O)cc2)c2ccccc2n1	11

Each compound was assayed against Disintegrin and metalloproteinase domain-containing protein 17 (Sus scrofa, UniProt O77636) (assay: Inhibition of porcine TACE).
Disintegrin and metalloproteinase domain-containing protein 17, sequence (O77636 whole entry, the tested form may be a part): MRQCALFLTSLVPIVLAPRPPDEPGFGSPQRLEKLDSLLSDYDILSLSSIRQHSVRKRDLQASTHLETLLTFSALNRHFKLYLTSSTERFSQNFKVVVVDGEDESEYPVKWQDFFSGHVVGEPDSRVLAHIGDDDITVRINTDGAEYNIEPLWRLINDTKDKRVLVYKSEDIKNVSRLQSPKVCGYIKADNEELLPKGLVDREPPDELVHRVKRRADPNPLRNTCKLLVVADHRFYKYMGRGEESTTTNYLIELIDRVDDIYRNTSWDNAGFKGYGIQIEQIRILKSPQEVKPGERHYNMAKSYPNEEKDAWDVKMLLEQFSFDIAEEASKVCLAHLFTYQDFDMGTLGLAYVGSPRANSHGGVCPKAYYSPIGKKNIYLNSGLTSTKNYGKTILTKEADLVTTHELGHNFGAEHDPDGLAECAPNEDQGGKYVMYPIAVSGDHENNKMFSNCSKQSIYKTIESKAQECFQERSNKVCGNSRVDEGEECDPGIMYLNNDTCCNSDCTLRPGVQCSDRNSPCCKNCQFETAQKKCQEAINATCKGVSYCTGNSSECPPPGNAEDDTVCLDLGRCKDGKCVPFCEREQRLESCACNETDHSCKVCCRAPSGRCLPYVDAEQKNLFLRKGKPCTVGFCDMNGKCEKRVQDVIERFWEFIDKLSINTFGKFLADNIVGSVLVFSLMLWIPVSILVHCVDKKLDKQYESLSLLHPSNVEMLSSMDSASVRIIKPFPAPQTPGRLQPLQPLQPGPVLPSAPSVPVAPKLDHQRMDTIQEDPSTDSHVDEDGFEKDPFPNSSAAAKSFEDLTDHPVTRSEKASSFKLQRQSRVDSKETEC

SMILES	IC50 [µM]
Cc1cc(COc2ccc(C(=O)NCC3(C4CCN(S(C)(=O)=O)CC4)C(=O)NC(=O)NC3=O)cc2)c2ccccc2n1	0.029
Cc1cc(COc2ccc(C(=O)NCC3(N4CCN(C(C)C)CC4)C(=O)NC(=O)NC3=O)cc2)c2ccccc2n1	0.007
Cc1cc(COc2ccc(C(=O)NC3CN(C(=O)c4cccnc4)CC34C(=O)NC(=O)NC4=O)cc2)c2ccccc2n1 (configuration not stated)	0.029
CC(=O)N1CC(NC(=O)c2ccc(OCc3cc(C)nc4ccccc34)cc2)C2(C1)C(=O)NC(=O)NC2=O (configuration not stated)	0.055
Cc1cc(COc2ccc(C(=O)NC3CN(C(=O)C(C)(C)C)CC34C(=O)NC(=O)NC4=O)cc2)c2ccccc2n1 (configuration not stated)	0.111
CCC1(CNC(=O)c2ccc(OCc3cc(C)nc4ccccc34)cc2)C(=O)NC(=O)NC1=O	0.016
C#CCN1CCN(C2(CNC(=O)c3ccc(OCc4cc(C)nc5ccccc45)cc3)C(=O)NC(=O)NC2=O)CC1	0.062
Cc1cc(COc2ccc(C(=O)NCC3(C4CCN(C)CC4)C(=O)NC(=O)NC3=O)cc2)c2ccccc2n1	0.057
Cc1cc(COc2ccc(C(=O)NCC3(N4CCN(Cc5ccccc5)CC4)C(=O)NC(=O)NC3=O)cc2)c2ccccc2n1	0.014
Cc1cc(COc2ccc(C(=O)NCC3(C(C)C)C(=O)NC(=O)NC3=O)cc2)c2ccccc2n1	0.019

These compounds were tested against 72 kDa type IV collagenase (Homo sapiens, UniProt P08253) (assay: Inhibition of MMP2).
72 kDa type IV collagenase, sequence (P08253 whole entry): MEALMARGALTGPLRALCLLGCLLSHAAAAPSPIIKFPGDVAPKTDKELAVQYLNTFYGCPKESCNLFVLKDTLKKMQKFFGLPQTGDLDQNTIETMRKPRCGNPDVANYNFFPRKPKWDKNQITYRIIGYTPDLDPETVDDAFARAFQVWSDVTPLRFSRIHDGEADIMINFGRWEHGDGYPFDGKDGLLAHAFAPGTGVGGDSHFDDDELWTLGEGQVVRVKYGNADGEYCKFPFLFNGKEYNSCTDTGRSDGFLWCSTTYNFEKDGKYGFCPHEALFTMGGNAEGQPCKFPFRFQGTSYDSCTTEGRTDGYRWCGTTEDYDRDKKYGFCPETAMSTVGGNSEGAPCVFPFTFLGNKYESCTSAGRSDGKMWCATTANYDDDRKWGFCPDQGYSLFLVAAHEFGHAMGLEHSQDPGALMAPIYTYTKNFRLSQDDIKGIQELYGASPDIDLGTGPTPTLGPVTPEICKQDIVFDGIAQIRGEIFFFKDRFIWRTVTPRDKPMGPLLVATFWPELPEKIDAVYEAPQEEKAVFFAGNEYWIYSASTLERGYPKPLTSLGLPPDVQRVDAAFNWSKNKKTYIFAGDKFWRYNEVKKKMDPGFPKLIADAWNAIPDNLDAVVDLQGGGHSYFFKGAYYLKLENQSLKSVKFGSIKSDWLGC

SMILES	Ki [µM]
Cc1cc(COc2ccc(C(=O)NCC3(C4CCN(S(C)(=O)=O)CC4)C(=O)NC(=O)NC3=O)cc2)c2ccccc2n1	> 3.33
Cc1cc(COc2ccc(C(=O)NCC3(N4CCN(C(C)C)CC4)C(=O)NC(=O)NC3=O)cc2)c2ccccc2n1	> 3.33
Cc1cc(COc2ccc(C(=O)NC3CN(C(=O)c4cccnc4)CC34C(=O)NC(=O)NC4=O)cc2)c2ccccc2n1 (configuration not stated)	> 3.33
CC(=O)N1CC(NC(=O)c2ccc(OCc3cc(C)nc4ccccc34)cc2)C2(C1)C(=O)NC(=O)NC2=O (configuration not stated)	> 3.33
Cc1cc(COc2ccc(C(=O)NC3CN(C(=O)C(C)(C)C)CC34C(=O)NC(=O)NC4=O)cc2)c2ccccc2n1 (configuration not stated)	> 3.33
CCC1(CNC(=O)c2ccc(OCc3cc(C)nc4ccccc34)cc2)C(=O)NC(=O)NC1=O	0.2
C#CCN1CCN(C2(CNC(=O)c3ccc(OCc4cc(C)nc5ccccc45)cc3)C(=O)NC(=O)NC2=O)CC1	> 3.33
Cc1cc(COc2ccc(C(=O)NCC3(C4CCN(C)CC4)C(=O)NC(=O)NC3=O)cc2)c2ccccc2n1	> 3.33
Cc1cc(COc2ccc(C(=O)NCC3(N4CCN(Cc5ccccc5)CC4)C(=O)NC(=O)NC3=O)cc2)c2ccccc2n1	2.7
Cc1cc(COc2ccc(C(=O)NCC3(C(C)C)C(=O)NC(=O)NC3=O)cc2)c2ccccc2n1	0.93

The compounds below were run against Stromelysin-1 (Homo sapiens, UniProt P08254) (assay: Inhibition of MMP3).
Stromelysin-1, sequence (P08254 whole entry): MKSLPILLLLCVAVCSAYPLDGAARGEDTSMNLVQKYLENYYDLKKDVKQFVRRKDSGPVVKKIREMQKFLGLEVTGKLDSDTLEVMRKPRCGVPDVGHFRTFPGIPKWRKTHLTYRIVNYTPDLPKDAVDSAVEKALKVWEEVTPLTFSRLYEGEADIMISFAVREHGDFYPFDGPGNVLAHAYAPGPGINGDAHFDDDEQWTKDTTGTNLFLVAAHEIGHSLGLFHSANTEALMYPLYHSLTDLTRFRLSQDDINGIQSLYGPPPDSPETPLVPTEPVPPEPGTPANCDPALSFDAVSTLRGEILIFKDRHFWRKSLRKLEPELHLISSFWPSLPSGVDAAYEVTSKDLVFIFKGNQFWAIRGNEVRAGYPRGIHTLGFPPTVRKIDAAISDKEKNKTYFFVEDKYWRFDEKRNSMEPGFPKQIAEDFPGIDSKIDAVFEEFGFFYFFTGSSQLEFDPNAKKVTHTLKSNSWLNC

SMILES	Ki [µM]
Cc1cc(COc2ccc(C(=O)NCC3(C4CCN(S(C)(=O)=O)CC4)C(=O)NC(=O)NC3=O)cc2)c2ccccc2n1	> 4.5
Cc1cc(COc2ccc(C(=O)NCC3(N4CCN(C(C)C)CC4)C(=O)NC(=O)NC3=O)cc2)c2ccccc2n1	> 4.5
Cc1cc(COc2ccc(C(=O)NC3CN(C(=O)c4cccnc4)CC34C(=O)NC(=O)NC4=O)cc2)c2ccccc2n1 (configuration not stated)	> 4.5
CC(=O)N1CC(NC(=O)c2ccc(OCc3cc(C)nc4ccccc34)cc2)C2(C1)C(=O)NC(=O)NC2=O (configuration not stated)	> 4.5
Cc1cc(COc2ccc(C(=O)NC3CN(C(=O)C(C)(C)C)CC34C(=O)NC(=O)NC4=O)cc2)c2ccccc2n1 (configuration not stated)	> 4.5
CCC1(CNC(=O)c2ccc(OCc3cc(C)nc4ccccc34)cc2)C(=O)NC(=O)NC1=O	> 4.5
C#CCN1CCN(C2(CNC(=O)c3ccc(OCc4cc(C)nc5ccccc45)cc3)C(=O)NC(=O)NC2=O)CC1	> 4.5
Cc1cc(COc2ccc(C(=O)NCC3(C4CCN(C)CC4)C(=O)NC(=O)NC3=O)cc2)c2ccccc2n1	> 4.5
Cc1cc(COc2ccc(C(=O)NCC3(N4CCN(Cc5ccccc5)CC4)C(=O)NC(=O)NC3=O)cc2)c2ccccc2n1	> 4.5
Cc1cc(COc2ccc(C(=O)NCC3(C(C)C)C(=O)NC(=O)NC3=O)cc2)c2ccccc2n1	> 4.5
